Data published in US6133322A, “Quinone derivatives for treating or preventing diseases associated with iron overload” (Institut National de la Sante et de la Recherche Medicale …, priority 1998, dated 2000).

Legend:
membrane lipids = test: Iron-induced peroxidation of membrane lipids (cis-parinaric acid fluorescent probe) in human heart homogenates; format: biochemical; conditions: for iron-induced damages of the membrane components (in words): in vitro system, summary; for peroxidation of membrane lipids (in words): FIG. 1A, iron form added to heart homogenate
Experimental: (§1) Human heart homogenates were used as an in vitro model to mimic the action of iron on mitochondrial ISPs and to test the potentially protective effect of various substances.
(§2) These homogenates were prepared under low iron-chelating conditions using the procedures described in Rustin P. et al., Biochemical and molecular investigations in respiratory chain deficiencies, Clin. Chim. Acta., 228, 35-51 (1994). Briefly, homogenate from frozen human heart was obtained surgically and prepared at ice-melting temperature in a 0.1 M Tris-HCI buffer (pH 7.3) by five strokes of hand-driven ground glass potter using the procedures described in Sanchez-Casis et al., Pathology of the heart in Friedreich's ataxia: review of the literature and report of one case, Can. J. Neurol. Sci., 3, 349-354 (1977). After filtering through a 90 μm nylon net, homogenate was sampled and frozen at -80° C. for enzyme studies.
(§3) The endogenous antioxidant defenses of heart mitochondria were neutralized by simple dilution, and free access of iron to its specific targets was achieved by freeze-thaw disrupting mitochondrial membranes.
Lipoperoxidation, a marker of non-specific peroxidative damages caused to membrane components, was monitored in the presence of either reduced or oxidized iron. Cis-parinaric acid (c-PN) was used as a fluorescent probe for lipoperoxidation (15,16). Measurements were performed in a 37° C. thermostated quartz cell, magnetically stirred, and containing 2 ml 0.1 M Tris-HCI buffer (pH 7.3) using a LS540B Spectrofluorimeter (Perkin-Elmer, England). Excitation: 318 nm; 5 nm band-pass Emission: 410 nm; 5 nm band-pass.
(§4) Lipids peroxidation, complex II activity, and aconitase activity were monitored according to the methods of example 1 above.

aconitases = test: Aconitase activity (aconitate accumulation at 240 nm in the presence of citrate) in human heart homogenate; format: biochemical; conditions: for Iron-induced damages to: Aconitases: 5 nM Fe^2+ + 2 nM EDTA + 6 U of the one enzyme
Experimental: as §1, §2, §3
(§5) The activities of two enzymes specifically targeted in FRDA, namely membrane-bound respiratory chain complex II and soluble (mitochondrial plus cytosolic) aconitases, were monitored under either low or high iron chelating conditions, in the presence of either reduced or oxidized iron. Complex II activity was measured on freeze-thaw heart homogenate as the dichlorophenolindophenol quinone reductase (DCPIP) (14). Aconitase activity in heart homogenate, corresponding to the combined mitochondrial and cytosolic enzyme activities, was measured by following the aconitate accumulation at 240 nm in the presence of citrate (6). All measurements were performed using a DW2000 Aminco Spectrophotometer (SLM, USA) in a 37° C. thermostated quartz cell, magnetically stirred, and containing 2 ml 0.1 M Tris-HCI buffer (pH 7.3).
as §4
Aconitase was assayed after additional 3 min incubation with 250 μM desferrixamine. Trace b: Aconitase activity measured after 6 min incubation in Tris-HCI buffer containing 250 μM desferrioxamine in the absence of Fe^2+.

complex II = test: Complex II activity (succinate quinone DCPIP reductase) in freeze-thaw human heart homogenate; format: biochemical; conditions: for protection of complex II from iron induced damages (in words): succinate alone or 60 μM oxidized idebenone alone, FIG. 2C traces a, b
Experimental: as §1, §2, §3, §5, §4

FRDA patients = test: Idebenone administration in FRDA patients: cardiac hypertrophy and cerebellar ataxia; format: in vivo, human
Experimental: Based on the previous in vitro data and owing to the innocuousness of the drug, five children ranging in age from 71/2 to 14 years and two young adults, all diagnosed with FDRA, were given idebenone orally (5 mg/kg/day).
The results observed after a course of treatment ranging from about 4 to about 9 months of administration at this dosage, are shown in FIG. 3:
A) Follow up of heart ultrasound parameters in patients 1, 6 and 7. LV: left ventricle. Note the decreased septal and left ventricle posterior wall thickness;
B) changes in cerebellar ataxia noted by parents and uninformed teachers. ®: Unchanged; : decrease; 0: No initial involvement.

[1] = 5 nM Fe^2+ + 50 μM quinone, no succinate
[2] = 5 nM Fe^2+ + 10 mM succinate + 50 μM quinone
[3] = quinone reduced in situ by the respiratory chain (succinate)
[4] = idebenone orally 5 mg/kg/day, about 4 to about 9 months
[5] = noted by the parents and uninformed teachers

Molecule: COC1=C(OC)C(=O)C(CC=C(C)CCC=C(C)CCC=C(C)CCC=C(C)C)=C(C)C1=O [CoQ4]
- Iron-induced damages to: Lipids (membrane lipids; [1]): -74 ± 3%
- Iron-induced damages to: Lipids (membrane lipids; [2]): -1 ± 1%

Molecule: COC1=C(OC)C(=O)C(CC=C(C)CCC=C(C)CCC=C(C)CCC=C(C)CCC=C(C)CCC=C(C)CCC=C(C)CCC=C(C)CCC=C(C)CCC=C(C)C)=C(C)C1=O [CoQ10]
- Iron-induced damages to: Lipids (membrane lipids; [1]): -66 ± 2%
- Iron-induced damages to: Lipids (membrane lipids; [2]): -1 ± 0.4%
- protection against iron-induced lipoperoxidation (in words) (membrane lipids; 8 μM CoQ10 reduced in situ by 3 min incubation with 10 mM succinate, FIG. 2B trace b): full protection
- protection against iron-induced lipoperoxidation (in words) (membrane lipids; 8 μM oxidized CoQ10, absence of succinate, FIG. 2B trace a): did not protect from iron-induced lipoperoxidation
- decrease of aconitase activity (aconitases; 3 min with 5 nM Fe^2+ + 8 μM CoQ10 without succinate, then 3 min 250 μM desferrioxamine, FIG. 2D trace c): 77%

Molecule: O=C(O)CN(CCN(CC(=O)O)CC(=O)O)CC(=O)O [EDTA]
- Iron-induced damages to: Lipids (membrane lipids; 5 nM Fe^2+ + 2 nM EDTA): -2 ± 1%
- protection of complex II activity (in words) (complex II; 1 nM EDTA added to the iron-supplemented (5 nM reduced iron) medium, FIG. 1B trace b): fully protected

Molecule: O=C1O[C@H]([C@@H](O)CO)C(O)=C1O [ascorbate]
- iron-induced damages of the membrane components (in words) (membrane lipids): enhancing these damages

Molecule: CC(=O)N(O)CCCCCNC(=O)CCC(=O)N(O)CCCCCNC(=O)CCC(=O)N(O)CCCCCN [desferrioxamine]
- Iron-induced damages to: Lipids (membrane lipids; 5 nM Fe^2+ + 120 μM desferrioxamine): 0 ± 1%
- decrease in aconitase activity (in words) (aconitases; 200 μM desferrioxamine alone, 6 min pre-incubation, no Fe^2+, FIG. 2D trace b): no decrease in enzyme activity
- loss of aconitase activity (aconitases; 250 μM desferrioxamine + 5 nM reduced iron, FIG. 1C trace d): 80%
- inhibition of aconitase activity (in words) (aconitases; desferrioxamine in the absence of iron, FIG. 1C trace c): No inhibition of aconitase activity

Molecule: N[C@@H](CCC(=O)N[C@@H](CS)C(=O)NCC(=O)O)C(=O)O [glutathione]
- iron-induced damages of the membrane components (in words) (membrane lipids): enhancing these damages

Molecule: COC1=C(OC)C(=O)C(CCCCCCCCCCO)=C(C)C1=O [idebenone, 6-(10-hydroxydecyl)-2,3-dimethoxy-5-methyl-1,4-benzoquinone]
- Iron-induced damages to: Lipids (membrane lipids; 5 nM Fe^2+ + 60 μM idebenone, no succinate): -63 ± 4%
- Iron-induced damages to: Lipids (membrane lipids; 5 nM Fe^2+ + 10 mM succinate + 60 μM idebenone): -1 ± 0.4%
- protection against iron-induced lipoperoxidation (in words) (membrane lipids; 60 μM oxidized idebenone, 3 min, no succinate, FIG. 2A trace a): No protection
- protection against iron-induced lipoperoxidation (in words) (membrane lipids; idebenone reduced in situ by succinate (about 2 μM reduced), FIG. 2A trace b): significant protection
- protection against iron-induced lipoperoxidation (in words) (membrane lipids; longer incubation with succinate (12 μM reduced; 20% of total idebenone), FIG. 2A trace c): enhanced
- protection of membrane lipids against iron injury (in words) (membrane lipids; [3]): efficiently protected
- protection of membrane-anchored complex II against iron injury (in words) (complex II; [3]): efficiently protected
- protection of complex II from iron induced damages (in words) (complex II): did not protect complex II
- protection of complex II activity (in words) (complex II; succinate and 60 μM idebenone added simultaneously (20% of idebenone reduced), FIG. 2C trace c): full protection
- prevention of the loss of aconitase activity induced by water-soluble chelators in the presence of reduced iron (in words) (aconitases; Table 2): neither succinate nor idebenone nor succinate+idebenone prevents the loss of aconitase activity
- myocardial hypertrophy (in words) (FRDA patients; 4 to 9 month regime, five FRDA patients): significant decrease
- deep tendon reflexes (in words) (FRDA patients; after a 9 month course): have not reappeared
- improvement of asynergia/dysmetria (finger-nose test) (patients improved/total) (FRDA patients; [4]): 3/5
- improvement of delicate movements (handwriting) (patients improved/total) (FRDA patients; [4]): 4/5
- improvement of gait ataxia (patients improved/total) (FRDA patients; [4]): 2/5
- improvement of muscle strength (patients improved/total) (FRDA patients; [4]): 5/5
- general condition (in words) (FRDA patients; [5]): improvement
- hand clumsiness (in words) (FRDA patients; [5]): decrease
- decrease of left ventricle mass index (FRDA patients; ultrasound, three patients): -21 to -32%
- reduction of left ventricle wall (FRDA patients; ultrasound, three patients): -8 to -20%
- reduction of septal thickness (FRDA patients; ultrasound, three patients): -31 to -36%

Molecule: O=C(O)CCC(=O)O [succinate]
- Iron-induced damages to: Lipids (membrane lipids; 5 nM Fe^2+ + 10 mM succinate): -58 ± 3%
- protection of membrane lipids against iron-induced peroxidation (in words) (membrane lipids; succinate alone): failed to protect
- protection of complex II from iron induced damages (in words) (complex II): did not protect complex II

Molecule: SOD: superoxide dismutase, water-soluble antioxidant enzyme
- iron-induced damages of the membrane components (in words) (membrane lipids): unable to prevent
- Iron-induced damages to: Aconitases (aconitases): -75 ± 1%

Molecule: ferric chloride [Fe^3+]
- peroxidation of membrane lipids (in words) (membrane lipids): no damage was observed
- peroxidation of membrane lipids (in words) (membrane lipids; listed as oxidized iron): did not significantly after membrane lipids

Molecule: ferrous chloride [Fe^2+]
- peroxidation of membrane lipids (in words) (membrane lipids; listed as Reduced iron): triggered an immediate peroxidation of the membrane lipid
- peroxidation of membrane lipids (in words) (membrane lipids; listed as reduced iron): rapid lipoperoxidation
- activity of complex II (in words) (complex II; 1 min incubation with 5 nM reduced iron, FIG. 1B trace c): strongly affected
- aconitase activity (in words) (aconitases; 10 min incubation with 5 nM reduced iron, FIG. 1C trace b): not affected

B1: catalase: water-soluble antioxidant enzyme (protein, UniProt P04040 2-527, looked up)
Catalase: ADSRDPASDQMQHWKEQRAAQKADVLTTGAGNPVGDKLNVITVGPRGPLLVQDVVFTDEMAHFDRERIPERVVHAKGAGAFGYFEVTHDITKYSKAKVFEHIGKKTPIAVRFSTVAGESGSADTVRDPRGFAVKFYTEDGNWDLVGNNTPIFFIRDPILFPSFIHSQKRNPQTHLKDPDMVWDFWSLRPESLHQVSFLFSDRGIPDGHRHMNGYGSHTFKLVNANGEAVYCKFHYKTDQGIKNLSVEDAARLSQEDPDYGIRDLFNAIATGKYPSWTFYIQVMTFNQAETFPFNPFDLTKVWPHKDYPLIPVGKLVLNRNPVNYFAEVEQIAFDPSNMPPGIEASPDKMLQGRLFAYPDTHRHRLGPNYLHIPVNCPYRARVANYQRDGPMCMQDNQGGAPNYYPNSFGAPEQQPSALEHSIQYSGEVRRFNTANDDNVTQVRAFYVNVLNEEQRKRLCENIAGHLKDAQIFIQKKAVKNFTEVHPDYGSHIQALLDKYNAEKPKNAIHTFVQSGSHLAAREKANL
- iron-induced damages of the membrane components (in words) (membrane lipids): unable to prevent
- Iron-induced damages to: Aconitases (aconitases): -46 ± 2%
